Consider 2 compounds from patent publication US20190248834A1, “ENDOMORPHIN-2, TETRAPEPTIDE DERIVATIVES THEREOF, AND USES THEREOF” (priority 2016, published 2019).

Non-standard residues stand in square brackets, D forms with d. pGlu = O=C1CC[C@@H](C(=O)O)N1 Where only a bound is given, the exact number is not on record here.

What all share (type): in vivo, human
For series [1], the system named is osteoarthritis of the knees. Nature of the series: Example 94: osteoarthritic knees, intra-articular injection of N-Ac derivative. The settings on record: approximately 1% (w/v) in water, 1 ml per knee intra-articular. As to the method:
A subject with osteoarthritis of the knees that progressively worsened over the years, evaluated the analgesic effectiveness of many topical preparations of tetrapeptide derivatives of the invention on numerous occasion. After such experiences, they decided to self-inject […] knees with a sterile aqueous preparation of N-Ac-Tyr-Pro-Phe-Phe-NH2, (SEQ ID NO: 23) at a concentration of approximately 1% (w/v) in water. Via the sub-patellar route, each knee was injected with 1 ml of the preparation, containing approximately 10 mg of the tetrapeptide . […] Walking about with the use of a wheeled walker at that time, the subject experienced knee pain, but at a level distinctly lower than earlier days before the injection. This degree of substantially diminished knee pain continued for an additional 16 hours when the return of pain was detected (3+ effect).

Series [2] has as its system very severe headaches with nausea and vomiting. The series is described as follows: Example 24: analgesic effect on severe headaches, topical. The source says: A subject had very severe headaches and associated nausea and vomiting, which occurred 1-2 times weekly. […] Over this interval, the frequency of headaches decreased to every 7-10 days, and the intensity of pain at the onset of each episode was diminished.

In the next series the test system is pain from MTSS. The series is described as follows: Example 22: analgesic effect on medial tibial stress syndrome, topical. The source says:
A small statured person, caretaker of an over-weight disabled elderly person, every evening suffers pain from MTSS of the left lower leg that is due to repeated use of the left leg to lift their patient throughout the day. Their sleeping has been repeatedly disturbed by the pain. […] They followed this sequence of procedures daily for one week work shift with the same result of rapid absolute relief of pain. During the week of being off from work, the MTSS is absent.

The subject of series [3] is psoriatic arthritis of the fingers. The series is described as follows: Example 79: analgesic effect on psoriatic arthritis, topical. The settings on record: 0.5% (w/v) in WEP442, topical once daily. The source says: A subject, presented with psoriatic arthritis of the fingers that was particularly painful in the right index finger joint and proximal joint of the left thumb.

For a further series, the system named is sprain of the left ankle. Nature of the series: Example 21: analgesic effect on ankle sprain, topical. The text has this: A subject, suffered a sprain of the left ankle after stepping on a stone while hiking, twisting the ankle inwardly. Ten days later, after wearing an elastic ankle support daily, pain from the injury persisted. The subject topically applied an anhydrous composition containing 0.7% (w/v) N-Ac-Tyr-Pro-Phe-Phe-NH2 (SEQ ID NO: 23) in EP73, formulated as described in Example 2. […] Upon arising the next morning, the subject experienced mild ankle pain, whereupon the composition was again applied. […] The subject was discomfort free thereafter.

Another series deals with psoriatic arthritis. The series is described as follows: Example 73: analgesic effect on psoriatic arthritis of hands, fingers and ankles, topical. The settings on record: 0.5% (w/v) in WEP442, topical. The source says: A subject had psoriatic arthritis of the hands and finger joints and ankle joints for 4 years.
In a further series the test system is sunburn pain. Nature of the series: Example 30: analgesic effect on sunburn pain, topical. The settings on record: 1% (w/v) in WEP442, topical. The source says: A subject with severe sunburn of their anterior legs the day after exposure to sunlight without sunscreen protection, topically applied a composition containing 1% (w/v) of N-Ac-Tyr-Pro-Phe-Phe-NH2 (SEQ ID NO: 23) in WEP442 to both legs.

A further series concerns moderate lower back pain. Nature of the series: Example 23: analgesic effect on lower back pain, topical. The settings on record: 1% (w/v) in WEP442, topical. The text has this:
A subject, working as a house cleaner, complained of moderate lower back pain at the end of a work day.

In series [4] the test system is chronic right shoulder pain. Nature of the series: Example 7: analgesic effect on shoulder pain, topical. The text has this:
A subject had chronic right shoulder pain. The subject was unable to lift their arm above chest level. The subject topically applied an anhydrous solution composition containing 0.5% (w/v) N-Ac-Tyr-Pro-Phe-Phe-NH2(SEQ ID NO: 23) in EP73, formulated as described in the Example 2, on their right shoulder at night. The next morning, 70% relief of pain was observed. The subject re-applied the composition at bedtime. The following morning, 85-90% relief was observed and they were able to lift their arm above their head with only minor discomfort.

The subject of series [5] is headache. Nature of the series: Example 52: analgesic effect on headache. The note with it: 1% (w/v) in WEP442, topical. The text has this:
At 5:30 p.m., the headache pain was becoming more intense, at which time they topically applied a composition containing 1% (w/v) of N-Pg-Tyr-Pro-Phe-Phe-NH2 (SEQ ID NO: 44) in WEP442 to the entire forehead and temporal areas. […] There was no recurrence of symptoms over the next 3 days of follow-up time.

A further series deals with knee pain and foot pain. The series is described as follows: Example 71: analgesic effect on foot sprain and knee pain following patella fracture, topical. The settings on record: 0.5% (w/v) in WEP442, topical. The source says: A subject suffered severe pain in their left knee and in the arch of their left foot following a forward fall to a wooden floor. Diagnoses of multiple fractures of the patella and a bruised foot were made by x-ray. Surgical repair of the knee was done, following which severe knee pain and acute pain in the arch of the foot persisted. […] Topical applications 3-4 times daily allowed the subject to pursue rehabilitation procedures pain free.

Another series relates to stress headaches. The series is described as follows: Example 69: analgesic effect on repeating stress headaches, topical. The note with it: 0.5% (w/v) in WEP442, topical, 5-6 headaches over 3 weeks. The source says:
A person had repeated stress headaches for several months. Such headaches had been relieved, or partially relieved, by over-the-counter medication.

For series [6], the system named is headache. Nature of the series: Example 65: analgesic effect on headache, topical. The note with it: 0.6% (w/v) in WEP442, topical. The text has this:
Several days after the incident causing the injury, they developed a bothersome headache, concentrated to the temporal areas.

Another series concerns carpal tunnel syndrome. Nature of the series: Example 78: analgesic effect on carpal tunnel syndrome, topical. The method, then:
A subject, and a computer operator, presented with symptoms of carpal tunnel syndrome, i.e. wrist pain and tingling sensations of the palm and fingers. […] Relief occurred within 3 minutes of topical application and lasted for 2-4 hours.

Where [7] appears, read: 0.7% (w/v) in EP73, first topical application.
[8] abbreviates: 0.7% (w/v) in EP73, second application.

Regarding `CC(=O)N[C@@H](Cc1ccc(O)cc1)C(=O)N1CCC[C@H]1C(=O)N[C@@H](Cc1ccccc1)C(=O)N[C@@H](Cc1ccccc1)C(N)=O` [N-Ac-Tyr-Pro-Phe-Phe-NH2], the analgesic effect grade in series [1] is 3+ (3+ (75%): complete relief of pain for less than 4 hours). Further, in series [1], the “discomfort from the injection” value is listed as “Mild discomfort from the injection”. The “additional duration of substantially diminished knee pain” value in series [1] (after the first 24 hours) came to 16 h. In addition, the knee pain entry in series [1] (over the ensuing 24 hours) is listed as “the knee pain gradually diminished”. Moreover, the “frequency of headaches (interval between headaches)” value in series [2] (1% (w/v) in WEP442, repeated uses over 3 months, before: 1-2 times weekly) lay within 7 to 10 days. Besides, the “time to pain relief” value in series [2] (1% (w/v) in WEP442, topical) is 3 to 4 min; with pain from MTSS (1% (w/v) in WEP442, topical), at most 1 min; in the series with sprain of the left ankle (setting [7]), 3 to 4 min; with sprain of the left ankle (setting [8]) it was at most 5 min; in the series with moderate lower back pain, 1 to 2 min. Besides, the pain relief result was “completely relieve pain and any associated symptoms” in series [2] (1% (w/v) in WEP442, topical at onset of symptoms); “completely relieved the pain” in the series on pain from MTSS (1% (w/v) in WEP442, single topical application); “complete relief of pain” in [3]; “no discomfort was discernible” in the series on sprain of the left ankle (0.7% (w/v) in EP73, application next morning, within about 5 minutes); “relieved almost completely” in the series on sprain of the left ankle (setting [7]); “complete relief of all discomfort” in the series on sprain of the left ankle (setting [8]). Moreover, the pain relief entry in the series with psoriatic arthritis was “almost complete relief of pain”; in the series on sunburn pain, “completely relieved almost instantly”; with moderate lower back pain, “almost complete relief of pain”. For the same compound, the “duration of pain relief” value in the series with pain from MTSS (1% (w/v) in WEP442, topical) was “No pain occurred until the next evening”; in series [3] it was 8 h; in the series on psoriatic arthritis it was “approximately 6 hours”; in the series with sunburn pain, “about 3 hours”. Also, the relief of pain in series [4] (0.5% (w/v) in EP73, re-applied at bedtime, following morning) was 85-90%; in [4] (0.5% (w/v) in EP73, topical at night, next morning) it was 70%.
Consider “N-Pg-Tyr-Pro-Phe-Phe-NH2 ([pGlu]YPFF-NH2; SMILES NC(=O)[C@H](Cc1ccccc1)NC(=O)[C@H](Cc1ccccc1)NC(=O)[C@@H]1CCCN1C(=O)[C@H](Cc1ccc(O)cc1)NC(=O)[C@@H]1CCC(=O)N1)”, for which, in the series on headache [5], the pain relief result is “all pain, and heavy feelings were completely gone”; the “time to pain relief” value is at most 30 s; the “time without recurrence of symptoms (follow-up)” value is listed as at least 3 days. Further, in the series with knee pain and foot pain, the “duration of pain relief” value was “more than 6 hours”; the pain relief result was “immediate and complete relief of knee pain and foot pain”. For the same compound, in the series on stress headaches, the headache relief entry is given as “completely relieved almost immediately”. Further, the headache relief result in the series on headache [6] is “almost immediate, complete relief of the headache”. In addition, in the series with carpal tunnel syndrome (0.5% (w/v) in WEP442, topical), the duration of relief fell in the range of 2 to 4 h and the time to relief is at most 3 min. The relief of symptoms result in the series on carpal tunnel syndrome (0.5% (w/v) in WEP442, topical several times during working hours) is given as “substantial relief of the symptoms”.
